Measured values published in US20160251403A1, “PEPTIDE COMBINATIONS AND USES THEREOF IN TREATING DUST MITE ALLERGY” (ALK-ABELLO A/S, priority 2013, published 2016).
No end group written: not given here.

Columns and labels:
DRB1_0301 = DRB1_0301 (Homo sapiens, UniProt P01903+P01911, A100K/A102G/A103R/A169T/F55Y/I96L/K41T/L162R/M171V/P40S/Q125H/Q178H/Q39Y/R42S/S66N/T106N/T262R/W38E/Y61H); assay: Competitive MHC class II binding assay, DRB1_0301
DPA10103-DPB10201 = biological target: T1, DPA10103-DPB10201 (Homo sapiens, UniProt P04440+P20036, A65V/A84D/A85E/K98E); assay: Competitive MHC class II binding assay, DPA10103-DPB10201
T1 sequence (P20036 29-260): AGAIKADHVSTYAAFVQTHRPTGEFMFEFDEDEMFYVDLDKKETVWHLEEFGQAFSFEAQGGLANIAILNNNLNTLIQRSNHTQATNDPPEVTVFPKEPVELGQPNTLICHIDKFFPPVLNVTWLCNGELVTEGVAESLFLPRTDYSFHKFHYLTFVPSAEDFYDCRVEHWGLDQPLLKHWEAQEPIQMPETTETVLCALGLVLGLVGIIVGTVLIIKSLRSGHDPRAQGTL
T1 sequence (P04440 30-258 A65V/A84D/A85E/K98E): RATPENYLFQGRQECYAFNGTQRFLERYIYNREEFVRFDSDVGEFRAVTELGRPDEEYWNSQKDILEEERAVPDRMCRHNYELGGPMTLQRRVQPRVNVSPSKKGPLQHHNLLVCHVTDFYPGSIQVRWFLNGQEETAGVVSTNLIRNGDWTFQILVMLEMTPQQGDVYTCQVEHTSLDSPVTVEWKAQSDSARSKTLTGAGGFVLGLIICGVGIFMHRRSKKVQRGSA

DRB4_0101 = DRB4_0101 (Homo sapiens, UniProt P01903+P13762, G164S); assay: Competitive MHC class II binding assay, DRB4_0101
DRB5_0101 = DRB5_0101 (Homo sapiens, UniProt P01903+Q30154); assay: Competitive MHC class II binding assay, DRB5_0101
DRB1_1501 = DRB1_1501 (Homo sapiens, UniProt P01903+P01911); assay: Competitive MHC class II binding assay, DRB1_1501
DRB1_0405 = DRB1_0405 (Homo sapiens, UniProt P01903+P01911, A100R/A169T/D86S/F76Y/I96L/K127E/L162R/M171V/N62H/P40V/Q125Y/R42H/S133A/S149N/S66Y/V115G/V209L/W38E); assay: Competitive MHC class II binding assay, DRB1_0405
DRB1_0101 = DRB1_0101 (Homo sapiens, UniProt P01903+P01911, A100R/D57E/F55L/F60I/F76Y/I96L/L162R/M171V/P40L/Q125E/R42F/V115G/Y59C); assay: Competitive MHC class II binding assay, DRB1_0101;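 also: competition against a radiolabeled probe peptide (0.1–1 nM) for purified HLA class II protein over 2–4 days, bound counts read after antibody capture, six competitor levels across 100,000-fold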
DRB1_1302 = DRB1_1302 (Homo sapiens, UniProt P01903+P01911, A100E/A169T/K41T/L162R/M171V/P40S/Q125H/Q178H/Q39Y/Q99D/R42S/S66N/T262R/V115G/W38E/Y61H); assay: Competitive MHC class II binding assay, DRB1_1302;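 also: purified HLA class II protein incubated two to four days with a radiolabeled reference binder and test peptide at six concentrations over a 100,000-fold range, complex-bound radioactivity counted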
DRB1_0701 = DRB1_0701 (Homo sapiens, UniProt P01903+P01911, A100R/A102G/A103Q/D57E/D86V/E43K/F76Y/K127E/L162R/M171V/P40G/Q125H/Q99D/R33Q/R42Y/R54Q/S133A/S66F/T210M/V115G/Y107V/Y59L/Y89S); assay: Competitive MHC class II binding assay, DRB1_0701;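 also: displacement of a radiolabeled reference peptide from purified HLA class II protein, with complex-bound radioactivity counted after 2–4 days of incubation and six concentrations spanning a 100,000-fold range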
DRB1_1201 = DRB1_1201 (Homo sapiens, UniProt P01903+P01911, A100R/A169T/D57E/D86V/F55L/H45Y/K41T/L162R/M171V/P40S/Q125H/Q178H/Q39Y/Q99D/R42G/S66L/T262R/V114A/V67L/W38E/Y59H/Y61H/Y89S); assay: Competitive MHC class II binding assay, DRB1_1201
DRB1_0401 = DRB1_0401 (Homo sapiens, UniProt P01903+P01911, A100K/A169T/F76Y/I96L/K127E/L162R/M171V/N62H/P40V/Q125Y/R42H/S133A/S149N/S66Y/V115G/V209L/W38E); assay: Competitive MHC class II binding assay, DRB1_0401
DPA10103-DPB10301 = biological target: T2, DPA10103-DPB10301 (Homo sapiens, UniProt P04440+P20036, A65V/A84D/A85E/E86D/F38Y/G113D/G114E/G40L/I94L/L37V/M105V/M116V/P115A/R125K/T199I); assay: Competitive MHC class II binding assay, DPA10103-DPB10301
T2 sequence (P20036 29-260): T1 sequence (P20036 29-260)
T2 sequence (P04440 30-258 L37V/F38Y/G40L/A65V/A84D/A85E/E86D/I94L/M105V/G113D/G114E/P115A/M116V/R125K/T199I/V234M): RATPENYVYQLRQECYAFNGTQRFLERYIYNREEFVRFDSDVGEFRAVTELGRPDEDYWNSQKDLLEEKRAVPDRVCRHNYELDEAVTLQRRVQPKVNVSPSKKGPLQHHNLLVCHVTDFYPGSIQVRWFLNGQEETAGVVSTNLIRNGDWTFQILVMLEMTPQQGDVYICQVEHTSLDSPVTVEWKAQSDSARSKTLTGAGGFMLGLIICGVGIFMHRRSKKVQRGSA

DRB1_0901 = DRB1_0901 (Homo sapiens, UniProt P01903+P01911, A100R/A103E/D57H/D86V/F55Y/F60I/F76Y/I96F/K127E/L162R/M171V/P40D/Q125H/Q99R/R33Q/R42F/S133A/S66N/T210M/V115G/W38K/Y107V/Y59G/Y89S); assay: Competitive MHC class II binding assay, DRB1_0901;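 also: displacement of a radiolabeled probe peptide from purified HLA class II protein, bound counts read after two to four days incubation, six concentrations spanning 100,000-fold, unlabeled probe as reference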
DRB1_0802 = DRB1_0802 (Homo sapiens, UniProt P01903+P01911, A100R/A103L/A169T/F76Y/H45Y/I96F/K41T/L162R/M171V/P40S/Q125H/Q178H/Q39Y/Q99D/R218S/R42G/S66Y/V115G/W38E); assay: Competitive MHC class II binding assay, DRB1_0802
DRB1_1101 = DRB1_1101 (Homo sapiens, UniProt P01903+P01911, A100R/A169T/A87E/I96F/K41T/L162R/M171V/P40S/Q125H/Q178H/Q39Y/Q99D/R42S/S66Y/T262R/V115G/W38E); assay: Competitive MHC class II binding assay, DRB1_1101
DQA10401-DQB10402 = assay: Competitive MHC class II binding assay, DQA10401-DQB10402
DRB3_0101 = DRB3_0101 (Homo sapiens, UniProt P01903+P79483); assay: Competitive MHC class II binding assay, DRB3_0101
DQA10102-DQB10602 = assay: Competitive MHC class II binding assay, DQA10102-DQB10602; details: read-out: HLA-DQA10102-DQB10602; positive binding at cutoff 1000 nM
DQA10501-DQB10201 = DQA10501-DQB10201 (Homo sapiens, UniProt P01909+P01920, A45G/A70V/D89A/E106A/E77G/E98D/H199R/L107V/N214S/P84L/P87L/T103K/T109R/T172A/T60S/V78E/V99I/Y58L/Y62S/Y69I/Y79F); assay: Competitive MHC class II binding assay, DQA10501-DQB10201
[1] = Solubility of peptides in aqueous solutions at different pH (visual inspection, OD, HPLC); type: physicochemical; details: pH 7, visual inspection
Text: This example describes modifications of parent peptides to improve the aqueous solubility, in particular to increase the solubility in an aqueous solution having pH in a physiologically acceptable range, e.g. from 6 to 8. Solubility is closely related to the ratio between hydrophilic and hydrophobic amino acid residues and the net charge state of the peptide. Peptides have zero net charge at pH=pI, and would be expected to show the lowest solubility at this pH. […] The solubility of these peptides was increased at pH values outside the physiological range (data not shown).
Peptides were tested for their ability to dissolve in aqueous solutions at different pH values. In short, each of the peptides were dissolved in water (pH about 5-6), hydrochloride solution at pH 2 (10 mM HCl), acetate buffer with pH 5 (20 mM acetate and 140 mM sodium chloride), phosphate buffer with pH 7 (20 mM phosphate and 140 mM sodium chloride) or bistrispropate buffer with pH 9 (20 mM bitrispropane and 140 mM sodium chloride, respectively, to produce a final molar concentration of the peptide of about 0.25 mM or 1 mM. Optionally, about 20% DMSO may be part of the solution. For comparison reasons, peptides were also dissolved in acetonitrile or DMSO. The solutions were inspected visually before and after centrifugation for turbidity, presence of particles/aggregates. In addition, presence of turbidity/particles/aggregates were detected by optical density (OD), but might also be detected by size-exclusion chromatography. Sub-visual particles may also be detected by dynamic light scattering (DLS) analysis. The solubility and stability of each peptide were also investigated using HPLC, e.g. RP-HPLC. For example, each of the solutions were injected onto the HPLC and the peak height or peak area of each of the peptides were compared to the corresponding peptide of a chromatogram of peptides dissolved in acetonitrile or DMSO—as peptides were assumed to be fully dissolved and stable in these solvents.

DRB3_0202 = DRB3_0202 (Homo sapiens, UniProt P01903+P79483, A212P/D57E/F66Y/L67A/R103Q/R218S/R40L/S89Y/T80R/V86D/Y55F/Y59H); assay: Competitive MHC class II binding assay, DRB3_0202

With “DLRQMRTVTPIRMQGGSGS [HDM203B, reference compound]” as the sequence, how does the IC50 (DRB1_0301) read?
Its IC50 is under 1000 nM.

What about the IC50 (DPA10103-DPB10201) of the same sequence?
The IC50 was under 1000 nM.

And the IC50 (DRB4_0101)?
The IC50 was under 1000 nM.

And the IC50 (DRB5_0101)?
Its IC50 is under 1000 nM.

And the IC50 (DRB1_1501)?
The IC50 was under 1000 nM.

And the IC50 (DRB1_0405)?
Its IC50 is under 1000 nM.

What about the IC50 (DRB1_0101) of the same sequence?
Its IC50 is under 1000 nM.

What about the IC50 (DRB1_1302) of the same sequence?
Its IC50 is under 1000 nM.

What about the IC50 (DRB1_0701) of the same sequence?
Its IC50 is under 1000 nM.

And the IC50 (DRB1_1201)?
The IC50 was under 1000 nM.

What about the IC50 (DRB1_0401) of the same sequence?
Its IC50 is under 1000 nM.

And the IC50 (DPA10103-DPB10301)?
Its IC50 is under 1000 nM.

What about the IC50 (DRB1_0901) of the same sequence?
The IC50 was under 1000 nM.

What about the IC50 (DRB1_0802) of the same sequence?
Its IC50 is under 1000 nM.

And the IC50 (DRB1_1101)?
Its IC50 is under 1000 nM.

Which IC50 (DRB1_0301) does the source give for IEYIQQNGVVEERSYPYVAR [pep-075] here?
Its IC50 is under 1000 nM.

What about the “binding to HLA Class II allele DQA10401-DQB10402” value (DQA10401-DQB10402; as shown in Table 16a) of the same sequence?
Its value is “binds to at least the same alleles as peptide 041”.

What about the IC50 (DQA10401-DQB10402; read-out: HLA-DQA10401-DQB10402, positive binding at cutoff 1000 nM) of the same sequence?
Its IC50 is under 1000 nM.

And the IC50 (DRB1_0405)?
The IC50 was under 1000 nM.

What about the IC50 (DRB1_0101) of the same sequence?
Its IC50 is under 1000 nM.

What about the IC50 (DRB1_1302) of the same sequence?
Its IC50 is under 1000 nM.

What about the “binding to HLA Class II allele DRB1_1302” value (DRB1_1302; as shown in Table 16a) of the same sequence?
The value was “binds to at least the same alleles as peptide 041”.

And the IC50 (DRB3_0101)?
The IC50 was under 1000 nM.

And the “binding to HLA Class II allele DRB3_0101” value (DRB3_0101; as shown in Table 16a)?
Its value is “binds to at least the same alleles as peptide 041”.

What about the IC50 (DRB1_1201) of the same sequence?
Its IC50 is under 1000 nM.

What about the IC50 (DQA10102-DQB10602) of the same sequence?
Its IC50 is under 1000 nM.

What about the IC50 (DQA10501-DQB10201) of the same sequence?
Its IC50 is under 1000 nM.

And the “binding to HLA Class II allele DQA10501-DQB10201” value (DQA10501-DQB10201; as shown in Table 16a)?
The value was “binds to at least the same alleles as peptide 041”.

What about the “Solubility at pH 7 (visual inspection)” value [1] of the same sequence?
The value was “Turbid”.

What about the IC50 (DRB3_0202) of the same sequence?
The IC50 was under 1000 nM.

What about the “binding to HLA Class II allele DRB3_0202” value (DRB3_0202; as shown in Table 16a) of the same sequence?
The value was “binds to at least the same alleles as peptide 041”.

With QESYYRYVAREQSSRR [pep-122] as the sequence, how does the IC50 (DRB5_0101) read?
Its IC50 is under 1000 nM.

What about the IC50 (DRB1_0405) of the same sequence?
The IC50 was under 1000 nM.

What about the IC50 (DRB1_0101) of the same sequence?
Its IC50 is under 1000 nM.

And the IC50 (DRB1_0701)?
The IC50 was under 1000 nM.

What about the IC50 (DRB1_1201) of the same sequence?
Its IC50 is under 1000 nM.

And the IC50 (DRB1_0401)?
Its IC50 is under 1000 nM.

And the IC50 (DPA10103-DPB10301)?
The IC50 was under 1000 nM.

And the IC50 (DRB1_0901)?
The IC50 was under 1000 nM.

What about the IC50 (DRB3_0202) of the same sequence?
Its IC50 is under 1000 nM.

What about the IC50 (DRB1_0802) of the same sequence?
Its IC50 is under 1000 nM.

And the IC50 (DRB1_1101)?
Its IC50 is under 1000 nM.
